Patent publication US9718819B2 (Merck Sharp & Dohme Corp., priority 2012, dated 2017)

How the values were obtained:
[1] = target: HIV-1 RT wild-type enzyme (Human immunodeficiency virus type 1 group M subtype B (isolate HXB2) (HIV-1), UniProt P04585); assay: HIV-1 reverse transcriptase inhibitory activity (RT polymerase assay); type: biochemical; conditions: HIV-1 RT wild-type enzyme 83 pM; RNA-dependent DNA polymerase activity; read-out: IC50
Procedure, shortened: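 Biotinylated DNA primer annealed to HCV-derived RNA template (16.6 nM final hybrid), with 2 μM dATP/dGTP/dCTP and 66.6 nM Ru-dUTP, after 30 min compound–enzyme preincubation at room temperature; polymerization 90 min at 37 °C, EDTA quench. Product captured on avidin plates, electrochemiluminescence read; IC50 by four-parameter logistic fit versus DMSO and 1 μM efavirenz controls.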

[2] = Determination of PK parameters in dog after intravenous bolus; type: in vivo, Male beagle dogs; conditions: male beagle dog, plasma, 50% DMSO in PEG400, read-out: Dog t1/2 (terminal half-life) (converted)
Procedure: Determination of PK Parameters Male beagle dogs (weight 9-13 kg) were fasted overnight and housed individually. Water was provided ad lib throughout the study. Food was allowed approximately 4 hr post dose. […] The formulations were given intravenous as a bolus injection into the cephalic vein. The vein used for the dosing will not be used for the blood sample collection for the first 4 hr post-dose). […] EDTA was used as anticoagulant and approximately 0.5 mL aliquots of blood samples were collected at each time point. […] Test compound concentration in dog plasma was determined using a LC/MS/MS method. Typically the LC/MS/MS system consisted of an ACQUITY UPLC system with autosampler system refrigerated at 4° C. during analysis, and an API 4000 mass spectrometer. […] The mobile phase consisting of a solvent A (0.1% formic acid in water/acetonitrile (95/5)) and solvent B (0.1% formic acid in acetonitrile/water (95/5)) was delivered at a flow rate of 600 μL/min. […] Mass spectrometric detection of the analytes is accomplished using either an ESI or APCI interface operated in the positive or negative ionization mode. Analyte response is measured by multiple reaction monitoring (MRM) of transitions unique to each compound […]

N#Cc1cc(Cl)cc(Oc2c(C(F)(F)F)ncn(Cc3cc(-c4ccc(F)cc4)c(=O)[nH]n3)c2=O)c1 [Example 77, 3-chloro-5-((1-((5-(4-fluorophenyl)-6-oxo-1,6-dihydropyridazin-3-yl)methyl)-6-oxo-4-(trifluoromethyl)-1,6-dihydropyrimidin-5-yl)oxy)benzonitrile]
IC50 [1]: 4 nM
half-life [2]: 79 h

CC(F)(F)c1cc(Cn2cnc(C(F)(F)F)c(Oc3cc(Cl)cc(C#N)c3)c2=O)c(=O)[nH]n1 [Example 129, 3-chloro-5-((1-((6-(1,1-difluoroethyl)-3-oxo-2,3-dihydropyridazin-4-yl)methyl)-6-oxo-4-(trifluoromethyl)-1,6-dihydropyrimidin-5-yl)oxy)benzonitrile]
IC50 [1]: 6 nM
half-life [2]: 126 h

N#Cc1cc(Cl)cc(Oc2c(C(F)(F)F)ncn(Cc3cc(C(F)(F)F)c(=O)[nH]n3)c2=O)c1 [Example 6, 3-chloro-5-((6-oxo-1-((6-oxo-5-(trifluoromethyl)-1,6-dihydropyridazin-3-yl)methyl)-4-(trifluoromethyl)-1,6-dihydropyrimidin-5-yl)oxy)benzonitrile]
IC50 [1]: 8 nM
half-life [2]: 72 h

N#Cc1cc(Cl)cc(Oc2c(C(F)(F)F)ncn(Cc3cc(C4CC4)n[nH]c3=O)c2=O)c1 [Example 117, 3-chloro-5-((1-((6-cyclopropyl-3-oxo-2,3-dihydropyridazin-4-yl)methyl)-6-oxo-4-(trifluoromethyl)-1,6-dihydropyrimidin-5-yl)oxy)benzonitrile]
IC50 [1]: 6 nM
half-life [2]: 30 h

N#Cc1cc(Cl)cc(Oc2c(C(F)(F)F)ncn(Cc3ccc(=O)[nH]n3)c2=O)c1 [Example 7, 3-chloro-5-((6-oxo-1-((6-oxo-1,6-dihydropyridazin-3-yl)methyl)-4-(trifluoromethyl)-1,6-dihydropyrimidin-5-yl)oxy)benzonitrile]
IC50 [1]: 8 nM
half-life [2]: 28 h

N#Cc1cc(Cl)cc(Oc2c(C(F)(F)F)ncn(Cc3cc(-c4ccccc4)n[nH]c3=O)c2=O)c1 [Example 110, 3-chloro-5-((6-oxo-1-((3-oxo-6-phenyl-2,3-dihydropyridazin-4-yl)methyl)-4-(trifluoromethyl)-1,6-dihydropyrimidin-5-yl)oxy)benzonitrile]
IC50 [1]: 3 nM
half-life [2]: 20 h

CC(C)(C)c1ncc(Cn2cnc(C(F)(F)F)c(Oc3cc(Cl)cc(C#N)c3)c2=O)c(=O)[nH]1 [Example 130, 3-((1-((2-(tert-butyl)-6-oxo-1,6-dihydropyrimidin-5-yl)methyl)-6-oxo-4-(trifluoromethyl)-1,6-dihydropyrimidin-5-yl)oxy)-5-chlorobenzonitrile]
IC50 [1]: 12 nM
half-life [2]: 24 h

N#Cc1cc(Cl)cc(Oc2c(C(F)(F)F)ncn(Cc3cc(C(F)F)n[nH]c3=O)c2=O)c1 [Example 128, 3-chloro-5-((1-((6-(difluoromethyl)-3-oxo-2,3-dihydropyridazin-4-yl)methyl)-6-oxo-4-(trifluoromethyl)-1,6-dihydropyrimidin-5-yl)oxy)benzonitrile]
IC50 [1]: 4 nM
half-life [2]: 81 h

N#Cc1cc(Cl)cc(Oc2c(C(F)(F)F)ncn(Cc3cc(-c4ccc(C#N)c(F)c4)c(=O)[nH]n3)c2=O)c1 [Example 68, 4-(6-((5-(3-chloro-5-cyanophenoxy)-6-oxo-4-(trifluoromethyl)pyrimidin-1(6H)-yl)methyl)-3-oxo-2,3-dihydropyridazin-4-yl)-2-fluorobenzonitrile]
IC50 [1]: 7 nM
half-life [2]: 25 h

CC(F)(F)c1cc(Cn2cnc(C(F)(F)F)c(Oc3cc(Cl)cc(C#N)c3)c2=O)n[nH]c1=O [Example 104, 3-chloro-5-((1-((5-(1,1-difluoroethyl)-6-oxo-1,6-dihydropyridazin-3-yl)methyl)-6-oxo-4-(trifluoromethyl)-1,6-dihydropyrimidin-5-yl)oxy)benzonitrile]
IC50 [1]: 15 nM
half-life [2]: 24 h

O=c1ccc(Cn2cnc(C(F)(F)F)c(Oc3cc(Cl)cc(C(F)(F)F)c3)c2=O)n[nH]1 [Example 21, 6-((5-(3-chloro-5-(trifluoromethyl)phenoxy)-6-oxo-4-(trifluoromethyl)pyrimidin-1(6H)-yl)methyl)pyridazin-3(2H)-one]
IC50 [1]: 29 nM

N#Cc1cc(Cl)cc(Oc2c(C(F)(F)F)ncn(Cc3cc(CF)c(=O)[nH]n3)c2=O)c1 [Example 16, 3-chloro-5-((1-((5-(fluoromethyl)-6-oxo-1,6-dihydropyridazin-3-yl)methyl)-6-oxo-4-(trifluoromethyl)-1,6-dihydropyrimidin-5-yl)oxy)benzonitrile]
IC50 [1]: 12 nM

N#Cc1cc(Cl)cc(Oc2c(C(F)(F)F)ncn(Cc3cc(O)c(=O)[nH]n3)c2=O)c1 [Example 107, 3-chloro-5-((1-((5-hydroxy-6-oxo-1,6-dihydropyridazin-3-yl)methyl)-6-oxo-4-(trifluoromethyl)-1,6-dihydropyrimidin-5-yl)oxy)benzonitrile]
IC50 [1]: 223 nM

N#Cc1cc(Cl)cc(Oc2c(OC(F)F)ncn(Cc3cc(-c4ccc(F)cc4)c(=O)[nH]n3)c2=O)c1 [Example 166]
IC50 [1]: 3 nM

N#Cc1cc(Cl)cc(Oc2c(C(F)(F)F)ncn(Cc3cc(Br)c(=O)[nH]n3)c2=O)c1 [Example 90, 3-((1-((5-bromo-6-oxo-1,6-dihydropyridazin-3-yl)methyl)-6-oxo-4-(trifluoromethyl)-1,6-dihydropyrimidin-5-yl)oxy)-5-chlorobenzonitrile]
IC50 [1]: 6 nM

COc1ccc(-c2cc(Cn3cnc(C(F)(F)F)c(Oc4cc(Cl)cc(C#N)c4)c3=O)n[nH]c2=O)c(F)c1 [Example 45, 3-chloro-5-((1-((5-(2-fluoro-4-methoxyphenyl)-6-oxo-1,6-dihydropyridazin-3-yl)methyl)-6-oxo-4-(trifluoromethyl)-1,6-dihydropyrimidin-5-yl)oxy)benzonitrile]
IC50 [1]: 6 nM

CSc1ncc(Cn2cnc(C(F)(F)F)c(Oc3cc(Cl)cc(C#N)c3)c2=O)c(=O)[nH]1 [Example 132, 3-chloro-5-((1-((2-(methylthio)-6-oxo-1,6-dihydropyrimidin-5-yl)methyl)-6-oxo-4-(trifluoromethyl)-1,6-dihydropyrimidin-5-yl)oxy)benzonitrile]
IC50 [1]: 12 nM

N#Cc1cc(Cl)cc(Oc2c(C(F)(F)F)ncn(Cc3cc(-c4ccc(OC(F)(F)F)cc4)n[nH]c3=O)c2=O)c1 [Example 116, 3-chloro-5-((6-oxo-1-((3-oxo-6-(4-(trifluoromethoxy)phenyl)-2,3-dihydropyridazin-4-yl)methyl)-4-(trifluoromethyl)-1,6-dihydropyrimidin-5-yl)oxy)benzonitrile]
IC50 [1]: 21 nM

N#Cc1cc(Cl)cc(Oc2c(C(F)(F)F)ncn(Cc3cc(-c4cccc(C#N)c4)c(=O)[nH]n3)c2=O)c1 [Example 54, 3-chloro-5-((1-((5-(3-cyanophenyl)-6-oxo-1,6-dihydropyridazin-3-yl)methyl)-6-oxo-4-(trifluoromethyl)-1,6-dihydropyrimidin-5-yl)oxy)benzonitrile]
IC50 [1]: 8 nM

N#Cc1cc(Cl)cc(Oc2c(C(F)(F)F)ncn(Cc3cc(-c4ccc(F)cc4)n[nH]c3=O)c2=O)c1 [Example 112, 3-chloro-5-((1-((6-(4-fluorophenyl)-3-oxo-2,3-dihydropyridazin-4-yl)methyl)-6-oxo-4-(trifluoromethyl)-1,6-dihydropyrimidin-5-yl)oxy)benzonitrile]
IC50 [1]: 5 nM

COc1ccc(-c2cc(Cn3cnc(C(F)(F)F)c(Oc4cc(Cl)cc(C#N)c4)c3=O)n[nH]c2=O)cc1F [Example 52, 3-chloro-5-((1-((5-(3-fluoro-4-methoxyphenyl)-6-oxo-1,6-dihydropyridazin-3-yl)methyl)-6-oxo-4-(trifluoromethyl)-1,6-dihydropyrimidin-5-yl)oxy)benzonitrile]
IC50 [1]: 4 nM
